Results taken from patent US10280163B2 (BeiGene, Ltd., priority 2015, dated 2019).
Like-named read-outs stand apart in the source and are kept apart here.

Key:
[1] = target: T1, Recombinant TDO (Homo sapiens, UniProt P48775); experiment: TDO enzymatic assay; type: biochemical; settings: 100 nM TDO, 0.5 mM L-tryptophan, read-out: Enzyme IC50 (nM) TDO
T1 construct: His tag (C); made in house; host or cells: E. coli
Protocol: Recombinant TDO was overexpressed and purified from E. coli cells with a C-terminal His tag. TDO enzymatic assay was performed using the same methodology as IDO1 enzymatic assay except that 100 nM TDO and 0.5 mM L-tryptophan (Km concentration) were used in the TDO assay.

[2] = target: T2, Recombinant IDO1 (Homo sapiens, UniProt P14902); experiment: IDO1 enzymatic assay; type: biochemical; settings: 50 nM IDO1, 1.3 mM D-tryptophan, read-out: Enzyme IC50 (nM) IDO1
T2 construct: His tag (N); made in house; host or cells: E. coli
T2 sequence (P14902 whole entry): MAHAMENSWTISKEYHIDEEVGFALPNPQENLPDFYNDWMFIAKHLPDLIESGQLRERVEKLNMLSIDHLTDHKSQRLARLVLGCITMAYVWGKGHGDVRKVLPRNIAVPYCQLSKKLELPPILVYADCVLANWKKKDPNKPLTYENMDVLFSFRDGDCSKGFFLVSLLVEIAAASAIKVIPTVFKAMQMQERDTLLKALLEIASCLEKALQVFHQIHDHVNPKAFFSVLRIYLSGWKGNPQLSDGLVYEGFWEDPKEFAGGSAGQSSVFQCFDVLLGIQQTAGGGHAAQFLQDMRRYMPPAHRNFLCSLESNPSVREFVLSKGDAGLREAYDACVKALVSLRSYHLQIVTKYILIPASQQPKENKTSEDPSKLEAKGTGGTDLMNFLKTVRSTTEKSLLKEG
Procedure, shortened: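 N-terminally His-tagged enzyme from E. coli (50 nM) was incubated with compound, 1.3 mM D-tryptophan, 5 mM ascorbate, 6.25 μM methylene blue and 0.4 mg/mL catalase in 50 mM potassium phosphate pH 7.5, 0.1% BSA for 1.5 h at 24° C. N′-formylkynurenine formation was followed at 321 nm for 1 h; IC50 from rate slopes.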

[3] = target: T3, cellular IDO1 in HeLa cells (Homo sapiens, UniProt P14902); experiment: HeLa cell-based IDO1 Kyn (kynurenine) production assay; settings: IFN-γ 100 ng/mL, 48 hours
T3 construct: endogenous in cells; host or cells: HeLa cells (American Type Tissue Culture Collection), induced with human recombinant IFN-γ
T3 sequence (P14902 whole entry): as above
Procedure, shortened: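 IFN-γ-induced HeLa cells (100 ng/mL) in phenol red-free DMEM with 0.4 mM L-Trp, compounds added together with IFN-γ, 48 h at 37 °C. Supernatant Kyn read at 480 nm after TCA precipitation and 4-(dimethylamino)benzaldehyde reaction. IC50 from four-parameter logistic fit.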

[4] = Table 1, 5-substituted imidazo[1,5-a]pyridines
[5] = Table 2, 8-substituted imidazo[1,5-a]pyridines

T1 sequence (P48775 whole entry): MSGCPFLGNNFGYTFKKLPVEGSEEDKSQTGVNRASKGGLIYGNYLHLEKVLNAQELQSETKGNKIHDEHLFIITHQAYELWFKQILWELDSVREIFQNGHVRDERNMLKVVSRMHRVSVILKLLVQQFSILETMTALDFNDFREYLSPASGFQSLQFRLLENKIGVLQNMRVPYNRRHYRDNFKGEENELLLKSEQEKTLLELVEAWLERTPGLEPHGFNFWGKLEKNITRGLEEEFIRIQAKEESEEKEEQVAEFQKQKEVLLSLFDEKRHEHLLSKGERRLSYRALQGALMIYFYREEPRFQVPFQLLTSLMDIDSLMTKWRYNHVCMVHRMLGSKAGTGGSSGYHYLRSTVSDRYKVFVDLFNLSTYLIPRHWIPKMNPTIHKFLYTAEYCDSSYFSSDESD

| Structure (SMILES) | IC50 [1, 4] [nM] | IC50 [2, 4] [nM] | EC50 [3, 4] [nM] | IC50 [1, 5] [nM] | IC50 [2, 5] [nM] | EC50 [3, 5] [nM] |
| --- | --- | --- | --- | --- | --- | --- |
| OC(c1c(-c2ccccc2)ccc2cncn12)C1CCCCC1 (stereo not drawn) [Example A130, cyclohexyl(6-phenylimidazo[1,5-a]pyridin-5-yl)methanol] | 1700 | 850 | 9150 | – | – | – |
| COc1ccc2cncn2c1C(O)C1CCCCC1 (stereo not drawn) [Example A131, cyclohexyl(6-methoxyimidazo[1,5-a]pyridin-5-yl)methanol] | 4100 | 28 | 939 | – | – | – |
| OC(c1c(C(F)(F)F)ccc2cncn12)C1CCCC1 (stereo not drawn) [Example A133, cyclopentyl(6-(trifluoromethyl)imidazo[1,5-a]pyridin-5-yl)methanol] | 36000 | 58 | 2040 | – | – | – |
| OC(c1c(I)ccc2cncn12)C1CC1 (stereo not drawn) [Example A134, cyclopropyl(6-iodoimidazo[1,5-a]pyridin-5-yl)methanol] | 26000 | 59 | 8610 | – | – | – |
| CC(C)c1ccc2cncn2c1C(O)C1CCCCC1 (stereo not drawn) [Example A135, cyclohexyl(6-isopropylimidazo[1,5-a]pyridin-5-yl)methanol] | 2700 | 39 | 54 | – | – | – |
| C=C(C)c1ccc2cncn2c1C(O)C1CCCCC1 (stereo not drawn) [Example A136, cyclohexyl(6-(prop-1en-2-yl)imidazo[1,5-a]pyridin-5-yl)methanol] | 3300 | 30 | 1610 | – | – | – |
| OC(c1c(C2CC2)ccc2cncn12)C1CCCC1 (stereo not drawn) [Example A138, cyclopentyl(6-cyclopropylimidazo[1,5-a]pyridin-5-yl)methanol] | 6600 | 25 | 418 | – | – | – |
| OC(CC1CCCCC1)c1c(C2CC2)ccc2cncn12 (stereo not drawn) [Example A139] | 2400 | 35 | 435 | – | – | – |
| Cc1noc(C)c1-c1ccc2cncn2c1C(O)C1CCCCC1 (stereo not drawn) [Example A140, cyclohexyl(6-(3,5-dimethylisoxazol-4-yl)imidazo[1,5-a]pyridin-5-yl)methanol] | 17000 | 10000 | 7810 | – | – | – |
| OC1CCCCC1C(O)c1c(C2CC2)ccc2cncn12 (stereo not drawn) [Example A141, 2-((6-cyclopropylimidazo[1,5-a]pyridin-5-yl)(hydroxy)methyl)cyclohexan-1-ol] | 3900 | 51 | 3150 | – | – | – |
| OC1CCC(C(O)c2c(C3CC3)ccc3cncn23)CC1 (stereo not drawn) [Example A142, 4-((6-cyclopropylimidazo[1,5-a]pyridin-5-yl)(hydroxy)methyl)cyclohexan-1-ol] | 64000 | 130 | 574 | – | – | – |
| OC(c1c(Cl)c(Cl)cc2cncn12)C1CCCCC1 (stereo not drawn) [Example A143, cyclohexyl(6,7-dichloroimidazo[1,5-a]pyridin-5-yl)methanol] | 270 | 15 | 1110 | – | – | – |
| OC(CC1CCCCC1)c1c(Cl)c(Cl)cc2cncn12 (stereo not drawn) [Example A144, 2-cyclohexyl-1-(6,7-dichloroimidazo[1,5-a]pyridin-5-yl)ethan-1-ol] | 1500 | 32 | 1240 | – | – | – |
| OC(c1cc(Cl)c(Cl)c2cncn12)C1CCCCC1 (stereo not drawn) [Example A146, cyclohexyl(7,8-dichloroimidazo[1,5-a]pyridin-5-yl)methanol] | 210 | 28 | 1250 | – | – | – |
| OC(c1c(Cl)c(Br)cc2cncn12)C1CCCCC1 (stereo not drawn) [Example A148, (7-bromo-6-chloroimidazo[1,5-a]pyridin-5-yl)(cyclohexyl)methanol] | 420 | 39 | 1490 | – | – | – |
| OC(c1c(Cl)c(Br)cc2cncn12)C1CCCC1 (stereo not drawn) [Example A149, (7-bromo-6-chloroimidazo[1,5-a]pyridin-5-yl)(cyclopentyl)methanol] | 160 | 35 | 2060 | – | – | – |

| Structure (SMILES) | IC50 [1, 4] [nM] | IC50 [2, 4] [nM] | EC50 [3, 4] [nM] | IC50 [1, 5] [nM] | IC50 [2, 5] [nM] | EC50 [3, 5] [nM] |
| --- | --- | --- | --- | --- | --- | --- |
| OC(c1c(Cl)c(F)cc2cncn12)C1CCCCC1 (stereo not drawn) [Example A151, (6-chloro-7-fluoroimidazo[1,5-a]pyridin-5-yl)(cyclohexyl)methanol] | 600 | 39 | 415 | – | – | – |
| OC(CC1CCCCC1)c1c(Cl)c(F)cc2cncn12 (stereo not drawn) [Example A152, 1-(6-chloro-7-fluoroimidazo[1,5-a]pyridin-5-yl)-2-cyclohexylethan-1-ol] | 7400 | 33 | 202 | – | – | – |
| COc1cc(C(O)C2CCCCC2)n2cncc2c1Cl (stereo not drawn) [Example A153, (8-chloro-7-methoxyimidazo[1,5-a]pyridin-5-yl)(cyclohexyl)methanol] | 1800 | 500 | 6760 | – | – | – |
| OC(c1c(Cl)c(Cl)c(Cl)c2cncn12)C1CCCCC1 (stereo not drawn) [Example A154, cyclohexyl(6,7,8-trichloroimidazo[1,5-a]pyridin-5-yl)methanol] | 8400 | 430 | 657 | – | – | – |
| OC(c1c(F)c(Cl)cc2cncn12)C1CCCCC1 (stereo not drawn) [Example A156, (7-chloro-6-fluoroimidazo[1,5-a]pyridin-5-yl)(cyclohexyl)methanol] | 190 | 48 | 1650 | – | – | – |
| OC(c1cccn2cncc12)C1CCCCC1 (stereo not drawn) [Example B001, Cyclohexyl(imidazo[1,5-a]pyridin-8-yl)methanol] | – | – | – | 630 | 1000 | > 10000 |
| OC(CC1CCCCC1)c1cccn2cncc12 (stereo not drawn) [Example B006, 2-Cyclohexyl-1-(imidazo[1,5-a]pyridin-8-yl)ethan-1-ol] | – | – | – | 3300 | 330 | > 10000 |
| OC(CCC1CCCCC1)c1cccn2cncc12 (stereo not drawn) [Example B008, 3-cyclohexyl-1-(imidazo[1,5-a]pyridin-8-yl)propan-1-ol] | – | – | – | 17000 | 620 | > 10000 |
| Cc1cc(C(O)C2CCCCC2)c2cncn2c1 (stereo not drawn) [Example B011, Cyclohexyl (6-methylimidazo[1,5-a]pyridin-8-yl)methanol] | – | – | – | 190 | 170 | > 10000 |
| Cc1cc(C(O)CC2CCCCC2)c2cncn2c1 (stereo not drawn) [Example B012, 2-Cyclohexyl-1-(6-methylimidazo[1,5-a]pyridin-8-yl)ethanol] | – | – | – | 130 | 130 | > 10000 |
| OC(CC1CCCCC1)c1cc(Cl)cn2cncc12 (stereo not drawn) [Example B013, 1-(6-Chloroimidazo[1,5-a]pyridin-8-yl)-2-cyclohexylethan-1-ol] | – | – | – | 190 | 240 | > 10000 |
| OC(c1cc(Cl)cn2cncc12)C1CCCCC1 (stereo not drawn) [Example B014, (6-Chloroimidazo[1,5-a]pyridin-8-yl)(cyclohexyl)methanol] | – | – | – | 100 | 180 | > 10000 |
| Cc1ccn2cncc2c1C(O)CC1CCCCC1 (stereo not drawn) [Example B101, 2-cyclohexyl-1-(7-methylimidazo[1,5-a]pyridin-8-yl)ethan-1-ol] | – | – | – | 1000 | 14 | 439 |
| Cc1ccn2cncc2c1C(O)C1CCCCC1 (stereo not drawn) [Example B102, cyclohexyl(7-methylimidazo[1,5-a]pyridin-8-yl)methanol] | – | – | – | 360 | 23 | 1560 |
| OC(c1c(I)ccn2cncc12)C1CCCCC1 (stereo not drawn) [Example B103, cyclohexyl(7-iodoimidazo[1,5-a]pyridin-8-yl)methanol] | – | – | – | 8000 | 69 | 575 |
| OC(c1c(Cl)ccn2cncc12)C1CCCCC1 (stereo not drawn) [Example B104, (7-chloroimidazo[1,5-a]pyridin-8-yl)(cyclohexyl)methanol] | – | – | – | 940 | 38 | 2930 |
